Measurements as given in ChEMBL document CHEMBL6134834, “Aromatic nitroolefin with inhibition efficacy in triple-negative breast cancer cells by dual targeting RXRα and tubulins” (Eur J Med Chem, 2025).

Test: Binding affinity to mouse brain tubulin assessed as dissociation constant by SPR analysis

O=[N+]([O-])CCc1cccc2ccccc12
Kd: 80.9 µM
